The source of these data is patent US20250170141A1, “MRGPRX2 MODULATORS AND RELATED METHODS OF TREATMENT” (Escient Pharmaceuticals, Inc., priority 2023, published 2025).

The structures appear in SMILES notation. A value given as a limit tells only on which side of the number the result lay.

For this assay, the target named is T1, human MRGPRX2 (Homo sapiens, UniProt Q96LB1).
T1 construct: expressed in transfected cells; host or cells: CHO cells, stably transfected (G418 and Hygromycin B selection)
T1 sequence (Q96LB1 1-330): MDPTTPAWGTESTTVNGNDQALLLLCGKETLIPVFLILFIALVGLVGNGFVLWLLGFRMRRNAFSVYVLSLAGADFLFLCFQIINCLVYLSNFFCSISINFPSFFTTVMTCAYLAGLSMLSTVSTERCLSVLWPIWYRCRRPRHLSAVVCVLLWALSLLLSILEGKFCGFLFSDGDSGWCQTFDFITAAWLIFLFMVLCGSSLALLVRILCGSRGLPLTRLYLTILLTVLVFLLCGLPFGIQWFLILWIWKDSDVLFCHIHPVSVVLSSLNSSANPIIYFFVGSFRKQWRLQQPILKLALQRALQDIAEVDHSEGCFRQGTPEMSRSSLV
The experiment in a line: MRGPRX2 activity: IP-One Gq HTRF assay in CHO cells, antagonism versus 0.3 uM Cortistatin-14. Type of assay: cell-based. Conditions: versus 0.3 uM Cortistatin-14 agonist, CHO cells expressing human MRGPRX2, read-out: MRGPRX2 Antagonist Activity. In outline: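 CHO cells stably expressing human MRGPRX2 were treated with a 10-point compound curve (30 uM top, 1:3) plus 0.3 μM Cortistatin-14 in LiCl-containing Tris buffer, pH 8. Incubation was 1 h at 37 °C then 1 h at room temperature; IP-1 was detected by HTRF and IC50 came from the HTRF ratio.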
On the technique in general: In TR-FRET formats the signal depends on donor and acceptor labels being close together.
Take `CC(c1ccccc1F)c1c(F)ccc2c1NC(NCc1ccccc1)=NS2(=O)=O` (stereo not shown) [Compound 7-4, 3-(benzylamino)-6-fluoro-5-(1-(2-fluorophenyl)ethyl)-4H-benzo[e][1,2,4]thiadiazine 1,1-dioxide]: the IC50 was less than 100 nM.
For `CC(c1ccccc1F)c1c(F)ccc2c1NC(NCc1ccccc1F)=NS2(=O)=O` (stereo not shown) [Compound 7-5, 6-fluoro-3-((2-fluorobenzyl)amino)-5-(1-(2-fluorophenyl)ethyl)-4H-benzo[e][1,2,4]thiadiazine 1,1-dioxide] the value was less than 100 nM; for `CC(c1ccccc1F)c1c(F)ccc2c1NC(NCc1ccc(F)cc1F)=NS2(=O)=O` (stereo not shown) [Compound 7-6, 3-((2,4-difluorobenzyl)amino)-6-fluoro-5-(1-(2-fluorophenyl)ethyl)-4H-benzo[e][1,2,4]thiadiazine 1,1-dioxide], less than 100 nM.
For `CC(c1ccccc1F)c1c(F)ccc2c1NC(NCc1ccc(F)c(Cl)c1)=NS2(=O)=O` (stereo not shown) [Compound 7-7, 3-((3-chloro-4-fluorobenzyl)amino)-6-fluoro-5-(1-(2-fluorophenyl)ethyl)-4H-benzo[e][1,2,4]thiadiazine 1,1-dioxide] the value was less than 100 nM.
For the compound `CC(c1ccccc1F)c1c(F)ccc2c1NC(NCc1cc(Cl)cc(Cl)c1)=NS2(=O)=O` (stereo not shown) [Compound 7-8, 3-((3,5-dichlorobenzyl)amino)-6-fluoro-5-(1-(2-fluorophenyl)ethyl)-4H-benzo[e][1,2,4]thiadiazine 1,1-dioxide], the IC50 was less than 100 nM.
For `COc1ccccc1CNC1=NS(=O)(=O)c2ccc(F)c(C(C)c3ccccc3F)c2N1` (stereo not shown) [Compound 7-9, 6-fluoro-5-(1-(2-fluorophenyl)ethyl)-3-((2-methoxybenzyl)amino)-4H-benzo[e][1,2,4]thiadiazine 1,1-dioxide], the IC50 is less than 100 nM.
For `CC(c1ccccc1Cl)c1c(F)ccc2c1NC(NCc1ncccc1F)=NS2(=O)=O` (stereo not shown) [Compound 8-1, 5-(1-(2-chlorophenyl)ethyl)-6-fluoro-3-(((3-fluoropyridin-2-yl)methyl)amino)-4H-benzo[e][1,2,4]thiadiazine 1,1-dioxide] the value was less than 100 nM; for `CC(c1ccc(F)cc1)c1c(F)ccc2c1NC(NCc1ncccc1F)=NS2(=O)=O` (stereo not shown) [Compound 8-2, 6-fluoro-5-(1-(4-fluorophenyl)ethyl)-3-(((3-fluoropyridin-2-yl)methyl)amino)-4H-benzo[e][1,2,4]thiadiazine 1,1-dioxide], less than 100 nM; for `Cc1c(F)cccc1CNC1=NS(=O)(=O)c2ccc(F)c(C(C)c3cccc(Cl)c3Cl)c2N1` (stereo not shown) [Compound 8-3, 5-(1-(2,3-dichlorophenyl)ethyl)-6-fluoro-3-((3-fluoro-2-methylbenzyl)amino)-4H-benzo[e][1,2,4]thiadiazine 1,1-dioxide], less than 100 nM.
Regarding `CC(c1ccccc1F)c1c(F)ccc2c1NC(NCc1cccc(Cl)c1F)=NS2(=O)=O` (stereo not shown) [Compound 9-2, 3-((3-chloro-2-fluorobenzyl)amino)-6-fluoro-5-(1-(2-fluorophenyl)ethyl)-4H-benzo[e][1,2,4]thiadiazine 1,1-dioxide], the IC50 is less than 100 nM.
For `CC(c1ccccc1F)c1c(F)ccc2c1NC(NCc1cc(F)ccc1F)=NS2(=O)=O` (stereo not shown) [Compound 9-3, 3-((2,5-difluorobenzyl)amino)-6-fluoro-5-(1-(2-fluorophenyl)ethyl)-4H-benzo[e][1,2,4]thiadiazine 1,1-dioxide] the value was less than 100 nM; for `CC(c1ccccc1F)c1c(F)ccc2c1NC(NCc1cccc(F)c1)=NS2(=O)=O` (stereo not shown) [Compound 9-4, 6-fluoro-3-((3-fluorobenzyl)amino)-5-(1-(2-fluorophenyl)ethyl)-4H-benzo[e][1,2,4]thiadiazine 1,1-dioxide], less than 100 nM; for `CC(c1ccccc1F)c1c(F)ccc2c1NC(NCc1cccc(F)n1)=NS2(=O)=O` (stereo not shown) [Compound 9-5, 6-fluoro-5-(1-(2-fluorophenyl)ethyl)-3-(((6-fluoropyridin-2-yl)methyl)amino)-4H-benzo[e][1,2,4]thiadiazine 1,1-dioxide], less than 100 nM.
Consider `Cc1c(F)cccc1CNC1=NS(=O)(=O)c2ccc(F)c(C(C)c3ccccc3F)c2N1` (stereo not shown) [Compound 9-6, 6-fluoro-3-((3-fluoro-2-methylbenzyl)amino)-5-(1-(2-fluorophenyl)ethyl)-4H-benzo[e][1,2,4]thiadiazine 1,1-dioxide], for which the IC50 was less than 100 nM.
With `CC(c1ccccc1F)c1c(F)c(F)cc2c1NC(NCc1ncccc1F)=NS2(=O)=O` (stereo not shown) [Compound 9-7, 6,7-difluoro-5-(1-(2-fluorophenyl)ethyl)-3-(((3-fluoropyridin-2-yl)methyl)amino)-4H-benzo[e][1,2,4]thiadiazine 1,1-dioxide], the IC50 is less than 100 nM.
As to `O=S1(=O)N=C(NCc2ncccc2F)Nc2c1ccc(F)c2CCc1ccccc1Cl` [Compound 11-1, 5-(2-chlorophenethyl)-6-fluoro-3-(((3-fluoropyridin-2-yl)methyl)amino)-4H-benzo[e][1,2,4]thiadiazine 1,1-dioxide], the IC50 lay in the range of 100 to 500 nM.
Under `O=S1(=O)N=C(NCc2ccccc2Cl)Nc2c(Cc3ccccc3Cl)cccc21` [Compound 12-1, 5-(2-chlorobenzyl)-3-((2-chlorobenzyl)amino)-4H-benzo[e][1,2,4]thiadiazine 1,1-dioxide] stands less than 100 nM.
For `O=S1(=O)N=C(NCc2ncccc2F)Nc2c(Cc3ccccc3Cl)cccc21` [Compound 12-2, 5-(2-chlorobenzyl)-3-(((3-fluoropyridin-2-yl)methyl)amino)-4H-benzo[e][1,2,4]thiadiazine 1,1-dioxide] the value was less than 100 nM; for `O=S1(=O)N=C(NCc2ncccc2Cl)Nc2c(Cc3ccccc3Cl)cccc21` [Compound 12-3, 5-(2-chlorobenzyl)-3-(((3-chloropyridin-2-yl)methyl)amino)-4H-benzo[e][1,2,4]thiadiazine 1,1-dioxide], less than 100 nM.
With `O=S1(=O)N=C(NCc2ccc(F)cc2Cl)Nc2c(Cc3ccccc3Cl)cccc21` [Compound 12-4, 3-((2-chloro-4-fluorobenzyl)amino)-5-(2-chlorobenzyl)-4H-benzo[e][1,2,4]thiadiazine 1,1-dioxide], the IC50 was less than 100 nM.
Take `Cc1ccc(CNC2=NS(=O)(=O)c3cccc(Cc4ccccc4Cl)c3N2)c(Cl)c1` [Compound 12-5, 3-((2-chloro-4-methylbenzyl)amino)-5-(2-chlorobenzyl)-4H-benzo[e][1,2,4]thiadiazine 1,1-dioxide]: the IC50 was less than 100 nM.
For `Cc1ccc(CNC2=NS(=O)(=O)c3cccc(Cc4ccccc4Cl)c3N2)c(F)c1` [Compound 12-6, 5-(2-chlorobenzyl)-3-((2-fluoro-4-methylbenzyl)amino)-4H-benzo[e][1,2,4]thiadiazine 1,1-dioxide] the value was less than 100 nM.
For `Cc1cc(F)ccc1CNC1=NS(=O)(=O)c2cccc(Cc3ccccc3Cl)c2N1` [Compound 12-7, 5-(2-chlorobenzyl)-3-((4-fluoro-2-methylbenzyl)amino)-4H-benzo[e][1,2,4]thiadiazine 1,1-dioxide] the value was less than 100 nM; for `Cc1ccc(CNC2=NS(=O)(=O)c3cccc(Cc4ccccc4Cl)c3N2)c(C)c1` [Compound 12-8, 5-(2-chlorobenzyl)-3-((2,4-dimethylbenzyl)amino)-4H-benzo[e][1,2,4]thiadiazine 1,1-dioxide], less than 100 nM; for `COc1cc(F)ccc1CNC1=NS(=O)(=O)c2cccc(Cc3ccccc3Cl)c2N1` [Compound 12-9, 5-(2-chlorobenzyl)-3-((4-fluoro-2-methoxybenzyl)amino)-4H-benzo[e][1,2,4]thiadiazine 1,1-dioxide], less than 100 nM.
Consider `O=S1(=O)N=C(NCc2ncc(F)cc2F)Nc2c(Cc3ccccc3Cl)cccc21` [Compound 12-10, 5-(2-chlorobenzyl)-3-(((3,5-difluoropyridin-2-yl)methyl)amino)-4H-benzo[e][1,2,4]thiadiazine 1,1-dioxide], for which the IC50 is less than 100 nM.
With `O=S1(=O)N=C(NCc2ccc(F)cc2F)Nc2c(Cc3ccccc3Cl)cccc21` [Compound 12-11, 5-(2-chlorobenzyl)-3-((2,4-difluorobenzyl)amino)-4H-benzo[e][1,2,4]thiadiazine 1,1-dioxide], the IC50 was less than 100 nM.
With `O=S1(=O)N=C(NCc2ccc(Cl)c(Cl)c2)Nc2c(Cc3ccccc3Cl)cccc21` [Compound 12-12, 5-(2-chlorobenzyl)-3-((3,4-dichlorobenzyl)amino)-4H-benzo[e][1,2,4]thiadiazine 1,1-dioxide], the IC50 is less than 100 nM.
`Cc1ccc(CNC2=NS(=O)(=O)c3cccc(Cc4ccccc4Cl)c3N2)cc1C` [Compound 12-13, 5-(2-chlorobenzyl)-3-((3,4-dimethylbenzyl)amino)-4H-benzo[e][1,2,4]thiadiazine 1,1-dioxide]: the IC50 was less than 100 nM.
For `O=S1(=O)N=C(NCc2ccc(F)c(F)c2)Nc2c(Cc3ccccc3Cl)cccc21` [Compound 12-14, 5-(2-chlorobenzyl)-3-((3,4-difluorobenzyl)amino)-4H-benzo[e][1,2,4]thiadiazine 1,1-dioxide] the value was less than 100 nM; for `COc1cc(C)ccc1CNC1=NS(=O)(=O)c2cccc(Cc3ccccc3Cl)c2N1` [Compound 12-15, 5-(2-chlorobenzyl)-3-((2-methoxy-4-methylbenzyl)amino)-4H-benzo[e][1,2,4]thiadiazine 1,1-dioxide], 100 to 500 nM.
